Tested on: HIV
Experiment: MT4 assay: antiviral HIV activity (cell protection, cell titer glo readout at 96 hours)
Type: cell-based
Conditions: Human immunodeficiency virus 1, MT4, 96 h, MT4 cells, cell titer glo readout at 96 hours, 10 point dose response; read-out: HIV MT4 Assay IC50
Procedure, shortened: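 MT-4 cells infected with HIV, with inhibition readout by CellTiter-Glo luminescence at 96 h relative to no-compound control. Cytotoxicity measured in parallel under the same conditions. IC50 from a 10-point, 3-4-fold dilution series spanning >1000-fold, fitted with a four-parameter logistic equation.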

| Structure (SMILES) | IC50 [nM] |
| --- | --- |
| COC[C@H]1CCCN1Cc1cc2c(-c3cc(F)c4c(c3C)CCCO4)c([C@H](OC(C)(C)C)C(=O)O)c(C)nc2n1C [Example 290] | 48.1 |
| Cc1nc2c(cc(CN3CCc4ccc(N5CCCCC5)cc4C3)n2C)c(-c2cc(F)c3c(c2C)CCCO3)c1[C@H](OC(C)(C)C)C(=O)O [Example 291] | 44.4 |
| Cc1nc2c(cc(CN3CCC[C@H]3C(=O)Nc3ccc4c(cnn4C)c3)n2C)c(-c2cc(F)c3c(c2C)CCCO3)c1[C@H](OC(C)(C)C)C(=O)O [Example 292] | 41.3 |
| Cc1nc2c(cc(CN3CC[C@@H](NC(=O)c4ccc5c(cnn5C)c4)C3)n2C)c(-c2cc(F)c3c(c2C)CCCO3)c1[C@H](OC(C)(C)C)C(=O)O [Example 293] | 44.3 |
| Cc1nc2c(cc(CN3CCC[C@H](NC(=O)c4ccc5c(cnn5C)c4)C3)n2C)c(-c2cc(F)c3c(c2C)CCCO3)c1[C@H](OC(C)(C)C)C(=O)O [Example 294] | 38.6 |
| Cc1nc2c(cc(CN3CCC[C@@H]3CO)n2C)c(-c2cc(F)c3c(c2C)CCCO3)c1[C@H](OC(C)(C)C)C(=O)O [Example 295] | 51.2 |
| Cc1nc2c(cc(CN(C)C(=O)c3ccc4c(cnn4C)c3)n2C)c(-c2cc(F)c3c(c2C)CCCO3)c1[C@H](OC(C)(C)C)C(=O)O [Example 296] | 28.5 |
| Cc1nc2c(cc(CCC(=O)Nc3ccc4c(cnn4C)c3)n2C)c(-c2cc(F)c3c(c2C)CCCO3)c1[C@H](OC(C)(C)C)C(=O)O [Example 298] | 258 |
| Cc1nc2c(cc(CCC(=O)N(C)c3ccc4c(cnn4C)c3)n2C)c(-c2cc(F)c3c(c2C)CCCO3)c1[C@H](OC(C)(C)C)C(=O)O [Example 299] | 39.3 |
| Cc1nc2c(cc(-c3nnc(N4CCC(C)CC4)o3)n2C)c(-c2cc(F)c3c(c2C)CCCO3)c1[C@H](OC(C)(C)C)C(=O)O [Example 301] | 3.9 |
| Cc1nc2c(cc(-c3nnc(N4CCCN(C5COC5)CC4)o3)n2C)c(-c2cc(F)c3c(c2C)CCCO3)c1[C@H](OC(C)(C)C)C(=O)O [Example 302] | 44.2 |
| COC1CCN(c2nnc(-c3cc4c(-c5cc(F)c6c(c5C)CCCO6)c([C@H](OC(C)(C)C)C(=O)O)c(C)nc4n3C)o2)CC1 [Example 303] | 3.9 |
| Cc1nc2c(cc(-c3nnc(NCC4CCOCC4)o3)n2C)c(-c2cc(F)c3c(c2C)CCCO3)c1[C@H](OC(C)(C)C)C(=O)O [Example 304] | 40.9 |
| Cc1nc2c(cc(-c3nnc(N(C)CCN4CCCC4)o3)n2C)c(-c2cc(F)c3c(c2C)CCCO3)c1[C@H](OC(C)(C)C)C(=O)O [Example 305] | 44.9 |
| Cc1nc2c(cc(-c3nnc(N4CCCN(C)CC4)o3)n2C)c(-c2cc(F)c3c(c2C)CCCO3)c1[C@H](OC(C)(C)C)C(=O)O [Example 306] | 51.8 |
| COCCN(C)c1nnc(-c2cc3c(-c4cc(F)c5c(c4C)CCCO5)c([C@H](OC(C)(C)C)C(=O)O)c(C)nc3n2C)o1 [Example 307] | 12.3 |
| Cc1nc2c(cc(-c3nnc(N(C)C)o3)n2C)c(-c2cc(F)c3c(c2C)CCCO3)c1[C@H](OC(C)(C)C)C(=O)O [Example 308] | 14 |
| Cc1nc2c(cc(-c3nnc(N4CC5CN(C6COC6)CC5C4)o3)n2C)c(-c2cc(F)c3c(c2C)CCCO3)c1[C@H](OC(C)(C)C)C(=O)O (stereo partly shown) [Example 309] | 46 |
| Cc1nc2c(cc(-c3nnc(N4CCOCC4)o3)n2C)c(-c2cc(F)c3c(c2C)CCCO3)c1[C@H](OC(C)(C)C)C(=O)O [Example 310] | 15.4 |
| Cc1nc2c(cc(-c3nnc(N4CCCC4)o3)n2C)c(-c2cc(F)c3c(c2C)CCCO3)c1[C@H](OC(C)(C)C)C(=O)O [Example 311] | 4.5 |
| Cc1nc2c(cc(-c3nnc(N4CCN(C)CC4)o3)n2C)c(-c2cc(F)c3c(c2C)CCCO3)c1[C@H](OC(C)(C)C)C(=O)O [Example 312] | 19.9 |
| Cc1nc2c(cc(-c3nnc(CN4CCCCC4)o3)n2C)c(-c2cc(F)c3c(c2C)CCCO3)c1[C@H](OC(C)(C)C)C(=O)O [Example 313] | 8.4 |
| Cc1nc2c(cc(-c3nnc(N4CCC(F)(F)CC4)o3)n2C)c(-c2cc(F)c3c(c2C)CCCO3)c1[C@H](OC(C)(C)C)C(=O)O [Example 314] | 7.6 |
| Cc1nc2c(cc(-c3nnc(N4CCN(C5COC5)CC4)o3)n2C)c(-c2cc(F)c3c(c2C)CCCO3)c1[C@H](OC(C)(C)C)C(=O)O [Example 315] | 40.6 |
| Cc1nc2c(cc(-c3nnc(N4CCS(=O)(=O)CC4)o3)n2C)c(-c2cc(F)c3c(c2C)CCCO3)c1[C@H](OC(C)(C)C)C(=O)O [Example 316] | 566 |
| Cc1nc2c(cc(-c3nnc(N4CCC(N5CCCCC5)CC4)o3)n2C)c(-c2cc(F)c3c(c2C)CCCO3)c1[C@H](OC(C)(C)C)C(=O)O [Example 317] | 118 |
| Cc1nc2c(cc(-c3nnc(N4CCC(N5CCOCC5)CC4)o3)n2C)c(-c2cc(F)c3c(c2C)CCCO3)c1[C@H](OC(C)(C)C)C(=O)O [Example 318] | 14.2 |
| Cc1nc2c(cc(-c3nnc(N4CCN(S(=O)(=O)N5CCCCC5)CC4)o3)n2C)c(-c2cc(F)c3c(c2C)CCCO3)c1[C@H](OC(C)(C)C)C(=O)O [Example 319] | 4.9 |

| Structure (SMILES) | IC50 [nM] |
| --- | --- |
| Cc1nc2c(cc(-c3nnc(N4CCC(N5CCS(=O)(=O)CC5)CC4)o3)n2C)c(-c2cc(F)c3c(c2C)CCCO3)c1[C@H](OC(C)(C)C)C(=O)O [Example 320] | 380 |
| Cc1nc2c(cc(-c3nnc(N4CCC5(CCCCC5)CC4)o3)n2C)c(-c2cc(F)c3c(c2C)CCCO3)c1[C@H](OC(C)(C)C)C(=O)O [Example 321] | 13.5 |
| Cc1nc2c(cc(-c3nnc(N4CCN(CC5CCOCC5)CC4)o3)n2C)c(-c2cc(F)c3c(c2C)CCCO3)c1[C@H](OC(C)(C)C)C(=O)O [Example 322] | 4.6 |
| Cc1nc2c(cc(-c3nnc(N4CCC(OC(C)C)CC4)o3)n2C)c(-c2cc(F)c3c(c2C)CCCO3)c1[C@H](OC(C)(C)C)C(=O)O [Example 323] | 5.2 |
| Cc1nc2c(cc(-c3nnc(N4CCC[C@@H]4C)o3)n2C)c(-c2cc(F)c3c(c2C)CCCO3)c1[C@H](OC(C)(C)C)C(=O)O [Example 324] | 4 |
| Cc1nc2c(cc(-c3nnc(N4CCC4)o3)n2C)c(-c2cc(F)c3c(c2C)CCCO3)c1[C@H](OC(C)(C)C)C(=O)O [Example 325] | 13.6 |
| Cc1nc2c(cc(-c3nnc(N4CCN5CCC[C@@H]5C4)o3)n2C)c(-c2cc(F)c3c(c2C)CCCO3)c1[C@H](OC(C)(C)C)C(=O)O [Example 326] | 3.8 |
| Cc1nc2c(cc(-c3nnc(N4CCC(n5cccn5)CC4)o3)n2C)c(-c2cc(F)c3c(c2C)CCCO3)c1[C@H](OC(C)(C)C)C(=O)O [Example 327] | 9.4 |
| Cc1nc2c(cc(-c3nnc(N4CCN(C5CCOCC5)C[C@H]4C)o3)n2C)c(-c2cc(F)c3c(c2C)CCCO3)c1[C@H](OC(C)(C)C)C(=O)O [Example 328] | 4.2 |
| Cc1nc2c(cc(-c3nnc(N4CCOC[C@@H]4C)o3)n2C)c(-c2cc(F)c3c(c2C)CCCO3)c1[C@H](OC(C)(C)C)C(=O)O [Example 329] | 13.4 |
| COC[C@H]1CCCN1c1nnc(-c2cc3c(-c4cc(F)c5c(c4C)CCCO5)c([C@H](OC(C)(C)C)C(=O)O)c(C)nc3n2C)o1 [Example 330] | 12.8 |
| Cc1nc2c(cc(-c3nnc(N4CC[C@@H](F)C4)o3)n2C)c(-c2cc(F)c3c(c2C)CCCO3)c1[C@H](OC(C)(C)C)C(=O)O [Example 331] | 4.3 |
| Cc1nc2c(cc(-c3nnc(N4CC[C@H](N(C)C)C4)o3)n2C)c(-c2cc(F)c3c(c2C)CCCO3)c1[C@H](OC(C)(C)C)C(=O)O [Example 332] | 23.8 |
| Cc1nc2c(cc(-c3nnc(N4CCN5CCOC[C@@H]5C4)o3)n2C)c(-c2cc(F)c3c(c2C)CCCO3)c1[C@H](OC(C)(C)C)C(=O)O [Example 333] | 16.5 |
| Cc1nc2c(cc(-c3nnc(N4CCOC[C@H]4C)o3)n2C)c(-c2cc(F)c3c(c2C)CCCO3)c1[C@H](OC(C)(C)C)C(=O)O [Example 334] | 10.4 |
| Cc1nc2c(cc(-c3nnc(N4CCN(C5CCOCC5)[C@@H](C)C4)o3)n2C)c(-c2cc(F)c3c(c2C)CCCO3)c1[C@H](OC(C)(C)C)C(=O)O [Example 335] | 10.1 |
| Cc1nc2c(cc(-c3nnc(N4CCN(C5CC5)CC4)o3)n2C)c(-c2cc(F)c3c(c2C)CCCO3)c1[C@H](OC(C)(C)C)C(=O)O [Example 336] | 4.5 |
| Cc1nc2c(cc(-c3nnc(N4CCN(CC5CC5)CC4)o3)n2C)c(-c2cc(F)c3c(c2C)CCCO3)c1[C@H](OC(C)(C)C)C(=O)O [Example 337] | 4.6 |
| COCC1CCCN1C1CCN(c2nnc(-c3cc4c(-c5cc(F)c6c(c5C)CCCO6)c([C@H](OC(C)(C)C)C(=O)O)c(C)nc4n3C)o2)CC1 (stereo partly shown) [Example 339] | 28.8 |
| Cc1nc2c(cc(-c3nnc(N4CCN(CCN5CCOCC5)CC4)o3)n2C)c(-c2cc(F)c3c(c2C)CCCO3)c1[C@H](OC(C)(C)C)C(=O)O [Example 340] | 43.2 |
| Cc1nc2c(cc(-c3nnc(NCCN4CCN(C)CC4)o3)n2C)c(-c2cc(F)c3c(c2C)CCCO3)c1[C@H](OC(C)(C)C)C(=O)O [Example 341] | 1250 |
| Cc1nc2c(cc(-c3nnc(N4CCN(C(C)C)CC4)o3)n2C)c(-c2cc(F)c3c(c2C)CCCO3)c1[C@H](OC(C)(C)C)C(=O)O [Example 342] | 5.4 |
| Cc1nc2c(cc(-c3nnc(N(C)CCN4CCOCC4)o3)n2C)c(-c2cc(F)c3c(c2C)CCCO3)c1[C@H](OC(C)(C)C)C(=O)O [Example 343] | 10.6 |
| Cc1nc2c(cc(-c3nnc(N4CCC(N5CCCC5)CC4)o3)n2C)c(-c2cc(F)c3c(c2C)CCCO3)c1[C@H](OC(C)(C)C)C(=O)O [Example 344] | 130 |
| Cc1nc2c(cc(-c3nnc(N4CCCCC4)o3)n2C)c(-c2cc(F)c3c(c2C)CCCO3)c1[C@H](OC(C)(C)C)C(=O)O [Example 345] | 2.7 |
| Cc1nc2c(cc(-c3nnc(N4CCC(F)CC4)o3)n2C)c(-c2cc(F)c3c(c2C)CCCO3)c1[C@H](OC(C)(C)C)C(=O)O [Example 346] | 2.7 |
| Cc1nc2c(cc(-c3nnc(N4CCN(C5CCOCC5)[C@H](C)C4)o3)n2C)c(-c2cc(F)c3c(c2C)CCCO3)c1[C@H](OC(C)(C)C)C(=O)O [Example 347] | 6.3 |

Source: patent US20150191469A1, “COMPOUNDS AND METHODS FOR TREATING HIV” (priority 2012, published 2015)
